Experimental findings from patent US12329769B2, “Use of Abelmoschi corolla extract in preparation of drug for treating fibrosis” (SUZHONG PHARMACEUTICAL GROUP CO., LTD., priority 2019, dated 2025) are described below.

One data set has as its system NRK-49F cells. Kind of data set: MTT test of effect on activity of NRK-49F cells. As to conditions: 30 μM monomer constituent, co-incubation 24 hours. In kind it is cell-based. The protocol: NRK-49F cells were inoculated into a 96-well plate at a density of 5×10^3 cells/well, and cultured in a DMEM medium containing 10% fetal bovine serum for 16 hours. 50 μg/mL gradient elution constituent solution of macroporous resin of an Abelmoschi corolla extract or 30 μM of monomer constituents of the Abelmoschi corolla extract were added. After co-incubation for 24 hours, an original culture solution was removed, and 100 μL of 0.5 mg/mL MTT was added into each well. After incubation in an incubator for 4 hours, a staining solution was removed, and 150 μL of DMSO was added for detection by a microplate reader.

Data set [1] deals with fibrosis of NRK-49F cells stimulated by TGF-β1. Put plainly: In-vitro anti-fibrosis effect: WB of Collagen I and α-SMA in NRK-49F cells stimulated by TGF-β1. The class given is cell-based. To be noted: 30 μM monomer constituent, added 30 minutes before TGF-β1, co-incubation 24 hours, FIG. 3.
Procedure: NRK-49F cells were inoculated into a 6-well plate at a density of 5×10^5 cells/well, and cultured in a DMEM medium containing 10% fetal bovine serum for 16 hours. After adding 50 μg/mL Abelmoschi corolla extract and each elution fraction constituent of macroporous resin and 30 μM monomer constituent of Abelmoschus manihot for 30 minutes, 10 mg/mL TGF-β1 was added. After co-incubation for 24 hours, cell proteins were extracted for a WB experiment to detect expression of Collagen I and α-SMA proteins, so as to judge the in-vitro anti-fibrosis effects of the Abelmoschi corolla extract and each elution constituent of macroporous resin and the monomer constituent.

For the compound `O=c1c(O)c(-c2cc(O)c(O)c(O)c2)oc2cc(O)cc(O)c12` [compound 18, Myricetin], the “activity of the NRK-49F cells (MTT)” value with NRK-49F cells was “significantly inhibit”.

As to `O=c1c(O)c(-c2ccc(O)c(O)c2)oc2cc(O)cc(O)c12` [compound 20, Quercetin], in data set [1], the “expression of Collagen I protein (WB)” value is on record as “significantly inhibit” and the “expression of α-SMA protein (WB)” value is on record as “significantly inhibit”.

As for `O=C(O)C1OC(Oc2c(O)cc(O)c3c(=O)c(OC4OC(CO)C(O)C(O)C4O)c(-c4ccc(O)c(O)c4)oc23)C(O)C(O)C1O` [compound 6, Gossypetin-3-O-β-D-glucose-8-O-β-D-glucuronide], in data set [1], the “expression of Collagen I protein (WB)” value was “significantly inhibit” and the “expression of α-SMA protein (WB)” value was “significantly inhibit”.
